Measurements from patent US20110086834A1, “ALKYNYL ALCOHOLS AS KINASE INHIBITORS” (AMGEN INC., priority 2008, published 2011).
One block for each molecule: values may come before it.

Biological target: T1, NIK (Homo sapiens, UniProt Q99558)
T1 construct: Both assays utilize a truncated form of NIK containing only the catalytic domain; made in house; host or cells: baculovirus expression system (insect cells implied)
Test: homogenous time resolved fluorescence (HTRF) assay for NIK Ki measurement
Type: biochemical
Conditions: truncated NIK (catalytic domain only), autophosphorylation; 10 nM enzyme; 20, 100, 200 or 500 μM ATP; room temperature, 2 hours; read-out: Ki activity in the homogenous time resolved fluorescence (HTRF) assay for NIK

T1 sequence (Q99558 400-655 limits assumed): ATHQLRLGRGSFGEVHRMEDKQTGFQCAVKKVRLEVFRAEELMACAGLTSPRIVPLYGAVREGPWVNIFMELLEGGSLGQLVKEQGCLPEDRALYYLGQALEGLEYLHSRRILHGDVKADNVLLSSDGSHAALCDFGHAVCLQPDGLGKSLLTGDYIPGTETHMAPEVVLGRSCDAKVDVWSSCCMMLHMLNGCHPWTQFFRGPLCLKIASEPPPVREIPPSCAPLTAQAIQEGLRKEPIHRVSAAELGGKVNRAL

SMILES: CC(O)(C#Cc1ccc2c(c1)N(c1ccncc1)CC2(CO)CO)c1nccs1 (centres unmarked) [Example 59, 4-(3,3-bis(hydroxymethyl)-1-(4-pyridinyl)-2,3-dihydro-1H-indol-6-yl)-2-(1,3-thiazol-2-yl)-3-butyn-2-ol]
Ki: < 1000 nM

SMILES: Cc1ccc(S(=O)(=O)n2nccc2C(C)(O)C#Cc2ccc3c(c2)N(c2ccnc(N)n2)CC3)cc1 (centres unmarked) [Example 76, 4-(1-(2-Amino-4-pyrimidinyl)-2,3-dihydro-1H-indol-6-yl)-2-(1-((4-methylphenyl)sulfonyl)-1H-pyrazol-5-yl)-3-butyn-2-ol]
Ki: < 1000 nM

SMILES: CC(O)(C#Cc1ccc2c(c1)N(c1ccnc(N)n1)CC2)c1ccn[nH]1 (centres unmarked) [Example 77, 4-(1-(2-Amino-4-pyrimidinyl)-2,3-dihydro-1H-indol-6-yl)-2-(1H-pyrazol-5-yl)-3-butyn-2-ol]
Ki: < 1000 nM

SMILES: CC(O)(C#Cc1ccc2c(c1)N(c1nc(N)ncc1Cl)CC2)c1ccn[nH]1 (centres unmarked) [Example 78, 4-(1-(2-Amino-5-chloro-4-pyrimidinyl)-2,3-dihydro-1H-indol-6-yl)-2-(1H-pyrazol-5-yl)-3-butyn-2-ol]
Ki: < 1000 nM

SMILES: Cc1c[nH]c(C(C)(O)C#Cc2ccc3c(c2)N(c2nc(N)ncc2Cl)CC3(C)C)n1 (centres unmarked) [Example 79, 4-(1-(2-Amino-5-chloro-4-pyrimidinyl)-3,3-dimethyl-2,3-dihydro-1H-indol-6-yl)-2-(4-methyl-1H-imidazol-2-yl)-3-butyn-2-ol]
Ki: < 1000 nM

SMILES: CC(O)(C#Cc1ccc2c(c1)N(c1nc(N)ncc1Cl)CC2(C)C)c1ccn[nH]1 (centres unmarked) [Example 80, 4-(1-(2-amino-5-chloropyrimidin-4-yl)-3,3-dimethylindolin-6-yl)-2-(1H-pyrazol-5-yl)but-3-yn-2-ol and 4-(1-(2-amino-5-chloropyrimidin-4-yl)-3,3-dimethylindolin-6-yl)-2-(1H-pyrazol-3-yl)but-3-yn-2-ol]
Ki: < 1000 nM

SMILES: C[C@](O)(C#Cc1ccc2c(c1)N(c1nc(N)ncc1Cl)CC21COC1)c1nccs1 [Example 81]
Ki: 1000 to 30000 nM

SMILES: CC(O)(C#Cc1ccc2[nH]nc(-c3ccns3)c2c1)c1nccs1 (centres unmarked) [Example 83, 4-(3-(isothiazol-5-yl)-1H-indazol-5-yl)-2-(thiazol-2-yl)but-3-yn-2-ol]
Ki: < 1000 nM

SMILES: COCCNC(=O)c1[nH]c2ccc(C#CC(C)(O)c3nccs3)cc2c1-c1ccncn1 (centres unmarked) [Example 89, 5-(3-hydroxy-3-(thiazol-2-yl)but-1-ynyl)-N-(2-methoxyethyl)-3-(pyrimidin-4-yl)-1H-indole-2-carboxamide]
Ki: < 1000 nM

SMILES: COCCNC(=O)c1c(-c2ccncn2)c2cc(C#CC(C)(O)c3nccs3)ccc2n1C (centres unmarked) [Example 90, 5-(3-hydroxy-3-(thiazol-2-yl)but-1-ynyl)-N-(2-methoxyethyl)-1-methyl-3-(pyrimidin-4-yl)-1H-indole-2-carboxamide]
Ki: < 1000 nM

SMILES: C[C@@](O)(C#Cc1ccc2[nH]c(C(=O)N3CCOCC3)c(-c3ccncn3)c2c1)c1nccs1 [Example 91, (5-((R)-3-hydroxy-3-(thiazol-2-yl)but-1-ynyl)-3-(pyrimidin-4-yl)-1H-indol-2-yl)(morpholino)methanone]
Ki: < 1000 nM

SMILES: CC(C)(C)NC(=O)c1ccc(-c2[nH]c3ccc(C#CC4(O)CCCC4)cc3c2-c2ccnc(N)n2)cc1 [Example 93, 4-(3-(2-aminopyrimidin-4-yl)-5-(2-(1-hydroxycyclopentyl)ethynyl)-1H-indol-2-yl)-N-tert-butylbenzamide]
Ki: < 1000 nM

SMILES: N#Cc1ccc(-c2[nH]c3ccc(C#CC4(O)CCCC4)cc3c2-c2ccnc(N)n2)cc1 [Example 94, 4-(3-(2-aminopyrimidin-4-yl)-5-(2-(1-hydroxycyclopentyl)ethynyl)-1H-indol-2-yl)benzonitrile]
Ki: < 1000 nM

Next, values leading:

Ki: < 1000 nM
SMILES: CC(O)(C#Cc1ccc2c(c1)N(c1nc(N)ncc1Cl)CC2(CO)CO)c1nccs1 (centres unmarked) [Example 60, 4-(1-(2-amino-5-chloro-4-pyrimidinyl)-3,3-bis(hydroxymethyl)-2,3-dihydro-1H-indol-6-yl)-2-(1,3-thiazol-2-yl)-3-butyn-2-ol]

Ki: < 1000 nM
SMILES: Nc1ncc(Cl)c(N2CC(CO)(CO)c3ccc(C#CC4(O)CCCC4)cc32)n1 [Example 62, 1-((1-(2-amino-5-chloro-4-pyrimidinyl)-3,3-bis(hydroxymethyl)-2,3-dihydro-1H-indol-6-yl)ethynyl)cyclopentanol]

Ki: < 1000 nM
SMILES: CC1(CCCO)CN(c2nc(N)ncc2Cl)c2cc(C#CC3(O)CCCC3)ccc21 (centres unmarked) [Example 63, 1-((1-(2-amino-5-chloro-4-pyrimidinyl)-3-(3-hydroxypropyl)-3-methyl-2,3-dihydro-1H-indol-6-yl)ethynyl)cyclopentanol]

Ki: < 1000 nM
SMILES: COCCC1(C)CN(c2nc(N)ncc2Cl)c2cc(C#CC3(O)CCCC3)ccc21 (centres unmarked) [Example 64, 1-((1-(2-amino-5-chloro-4-pyrimidinyl)-3-(2-methoxyethyl)-3-methyl-2,3-dihydro-1H-indol-6-yl)ethynyl)cyclopentanol]

Ki: < 1000 nM
SMILES: CC1(C)CN(c2nc(N)ncc2F)c2cc(C#CC3(O)CCCC3)ccc21 [Example 65, 1-((1-(2-amino-5-fluoro-4-pyrimidinyl)-3,3-dimethyl-2,3-dihydro-1H-indol-6-yl)ethynyl)cyclopentanol]

Ki: < 1000 nM
SMILES: CC1(CO)CN(c2nc(N)ncc2F)c2cc(C#CC3(O)CCCC3)ccc21 (centres unmarked) [Example 66, 1-((1-(2-amino-5-fluoro-4-pyrimidinyl)-3-(hydroxymethyl)-3-methyl-2,3-dihydro-1H-indol-6-yl)ethynyl)cyclopentanol]

Ki: < 1000 nM
SMILES: CC1(CCC#N)CN(c2nc(N)ncc2F)c2cc(C#CC3(O)CCCC3)ccc21 (centres unmarked) [Example 67, 3-(1-(2-amino-5-fluoro-4-pyrimidinyl)-6-((1-hydroxycyclopentyl)ethynyl)-3-methyl-2,3-dihydro-1H-indol-3-yl)propanenitrile]

Ki: < 1000 nM
SMILES: Nc1ncc(F)c(N2CCc3ccc(C#CC4(O)CCCC4)cc32)n1 [Example 68, 1-((1-(2-amino-5-fluoro-4-pyrimidinyl)-2,3-dihydro-1H-indol-6-yl)ethynyl)cyclopentanol]

Ki: < 1000 nM
SMILES: COCC1(C)CN(c2nc(N)nc3[nH]cnc23)c2cc(C#CC3(O)CCCC3)ccc21 (centres unmarked) [Example 69, 1-((1-(2-amino-9H-purin-6-yl)-3-(methoxymethyl)-3-methyl-2,3-dihydro-1H-indol-6-yl)ethynyl)cyclopentanol]

Ki: < 1000 nM
SMILES: Nc1nc(N2CCc3ccc(C#CC4(O)CCCC4)cc32)c2nc[nH]c2n1 [Example 72, 1-((1-(2-amino-9H-purin-6-yl)-2,3-dihydro-1H-indol-6-yl)ethynyl)cyclopentanol]

Ki: < 1000 nM
SMILES: COCCOCC1(C)CN(c2nc(N)nc3[nH]cnc23)c2cc(C#CC3(O)CCCC3)ccc21 (centres unmarked) [Example 73, 1-((1-(2-amino-9H-purin-6-yl)-3-((2-methoxyethoxy)methyl)-3-methyl-2,3-dihydro-1H-indol-6-yl)ethynyl)cyclopentanol]

Ki: < 1000 nM
SMILES: CC1(CO)CN(c2nc(N)nc3[nH]cnc23)c2cc(C#CC3(O)CCCC3)ccc21 (centres unmarked) [Example 74, 1-((1-(2-amino-9H-purin-6-yl)-3-(hydroxymethyl)-3-methyl-2,3-dihydro-1H-indol-6-yl)ethynyl)cyclopentanol]

Ki: < 1000 nM
SMILES: CC1(C)CN(c2nc(N)nc3[nH]cnc23)c2cc(C#CC3(O)CCCC3)ccc21 [Example 75, 1-((1-(2-amino-9H-purin-6-yl)-3,3-dimethyl-2,3-dihydro-1H-indol-6-yl)ethynyl)cyclopentanol]
